Read-outs that look alike come from different tables or passages of the source. Starred links: 1 amine or outer side, 2 acyl side, 3 side chain; linkers in the order of their positions; H or OH if unused. Non-standard residues stand in square brackets, D forms with d. Groups on a side chain read outwards from the residue. *: point of attachment. C18 diacid = O=C(O)CCCCCCCCCCCCCCCCC(=O)*; αMePhe(2-F) = C[C@](N)(Cc1ccccc1F)C(=O)O; γGlu = O=C(O)[C@H](CCC(=O)[*:2])N[*:1]; αMe4Pal = C[C@](N)(Cc1ccncc1)C(=O)O; αMeY = C[C@](N)(Cc1ccc(O)cc1)C(=O)O; 4Pal = N[C@@H](Cc1ccncc1)C(=O)O; αMeL = CC(C)C[C@](C)(N)C(=O)O; αMeS = C[C@](N)(CO)C(=O)O; Orn = NCCC[C@H](N)C(=O)O; AEEA = NCCOCCOCC(=O)O; Aib = CC(C)(N)C(=O)O
Tests used:
[1] = Pepsin stability assay in simulated gastric fluid; assay type: in vitro ADME; conditions: pH 1.2, % Intact (SD)
Method: A pepsin stability assay is utilized to determine the relative stability of Example polypeptides in a simulated gastric proteolytic environment. […] The relative amount of intact peptide is quantified by mass spectrometry (MS). […] The examples were dissolved in 50 mM Tris buffer pH 8.0 at a concentration of 10 mg/mL as a stock solution. Pepsin A was reconstituted in SGF at 10 mg/mL. […] The example peptide and pepsin solutions were then incubated at 37° C. in a shaking incubator set at 100 rpm. Samples (25 μL) were withdrawn at different time intervals and quenched with 100 mM ammonium bicarbonate pH 9 (50 μL) to stop proteolytic activity. All samples were centrifuged, and the supernatants were analyzed by LC/MS to determine the remaining intact peptide.

in vivo [2] = experiment: in vivo; design: species or system cynomolgus monkeys; conditions: both sexes, cynomolgus monkey, iv, 10 nmol/kg
Method: (§1) A study is designed to evaluate the oral bioavailability of Example polypeptides in cynomolgus monkeys. […] Standards and controls are prepared in cynomolgus monkey plasma, and any dilutions required to bring samples into the quantitative range are also performed in control cynomolgus monkey plasma. To control assay variability, an internal standard (IS) is added to all the standards and samples. The Examples and IS are extracted from 100% monkey plasma (50 μL) by protein precipitation using isopropyl alcohol and methanol (50:50 v/v). The samples are then centrifuged (3000 rpm for 10 minutes) and the supernatant is transferred to a Siricco Protein Precipitation Plate. The samples are loaded on a Sep-Pak tC18 SPE microelution plate that is conditioned with 2% formic acid in acetonitrile and water. The compounds are then washed with 2% formic acid in water and eluted using 2% formic acid in acetonitrile into a plate containing 5× Invitrosol and 1% formic acid in water prior to injecting an aliquot (10 μL) on to Xselect CSH C18, 3.5 μm, 2.1×20 mm for LC/MS analysis.
Blood samples are collected over 504 hours. Plasma is harvested from blood samples by centrifugation and stored frozen (−70° C.) until analysis. Plasma concentrations of the molecules are detected using the bioanalytical method described above.

human GLP1-R = human GLP1-R (Homo sapiens, UniProt P43220); experiment: GLP1-R internalization assay in HEK293 cells; assay type: cell-based; conditions: for EC50: HEK293 cells expressing SNAP-GLP-1R, read-out: GLP1R Internalization EC50; for Internalization % TOP: normalized to maximum concentration of GLP-1 (100%)
hGLP-1R [3] = target: T1, hGLP-1R (Homo sapiens, UniProt P43220); experiment: Functional cAMP activity in the presence of 1% HSA; assay type: cell-based; conditions: read-out: cAMP Rel EC50, hGLP-1R
hGLP-1R [4] = target: T1, hGLP-1R; experiment: Functional cAMP activation in the presence of 0.1% casein (no HSA); assay type: cell-based; conditions: read-out: Relative cAMP EC50, hGLP-1R;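 for Relative cAMP EC50, hGIPR: intracellular cAMP rise after 30 min at 37 °C read by HTRF against a standard curve, scaled between buffer alone (0%) and top control ligand concentration (100%), four-parameter fit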;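 for Relative cAMP EC50, hGLP-1R: intracellular cAMP rise after 30 min at 37 °C read by HTRF, normalized between buffer only (0%) and maximal control ligand (100%), four-parameter variable-slope fit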
hGIPR [5] = target: T2, hGIPR (Homo sapiens, UniProt P48546); experiment: Functional cAMP activity in the presence of 1% HSA; assay type: cell-based; conditions: read-out: cAMP Rel EC50, hGIPR
T2 sequence (P48546 22-466): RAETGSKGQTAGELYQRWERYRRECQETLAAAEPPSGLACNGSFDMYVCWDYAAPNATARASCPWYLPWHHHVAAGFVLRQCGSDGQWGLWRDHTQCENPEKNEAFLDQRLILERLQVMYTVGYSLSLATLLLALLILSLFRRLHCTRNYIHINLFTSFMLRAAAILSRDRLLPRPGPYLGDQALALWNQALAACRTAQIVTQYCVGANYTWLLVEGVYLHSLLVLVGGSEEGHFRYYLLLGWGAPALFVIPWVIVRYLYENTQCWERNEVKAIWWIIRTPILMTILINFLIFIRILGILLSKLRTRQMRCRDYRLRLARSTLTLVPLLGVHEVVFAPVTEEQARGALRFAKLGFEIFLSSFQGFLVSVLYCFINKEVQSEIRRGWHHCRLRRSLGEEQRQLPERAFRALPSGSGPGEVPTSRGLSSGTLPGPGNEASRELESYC

hGIPR [6] = target: T2, hGIPR; experiment: Functional cAMP activation in the presence of 0.1% casein (no HSA); assay type: cell-based; conditions: read-out: Relative cAMP EC50, hGIPR;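 for Relative cAMP EC50, hGIPR: intracellular cAMP rise after 30 min at 37 °C read by HTRF against a standard curve, scaled between buffer alone (0%) and top control ligand concentration (100%), four-parameter fit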;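 for Relative cAMP EC50, hGLP-1R: intracellular cAMP rise after 30 min at 37 °C read by HTRF, normalized between buffer only (0%) and maximal control ligand (100%), four-parameter variable-slope fit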
in vivo [7] = experiment: in vivo; design: species or system cynomolgus monkeys; conditions: both sexes, cynomolgus monkey, po; for bioavailability: 10 mg; for AUC(0-inf) / CL/F / Cmax / Tmax / half-life: 300 mg
Method: as §1
[…] Blood samples are collected up to 504 hours post-dose. Plasma is harvested from blood samples by centrifugation and stored frozen (−70° C.) until analysis. Plasma concentrations of the molecules are detected using the bioanalytical method described above.

[8] = system: Intestinal organoid from Göttingen minipig jejunum tissue, 2D monolayer; experiment: Cell based in vitro permeability (Papp) assay; assay type: in vitro ADME
Method in brief: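 2D monolayers derived from Göttingen minipig jejunal organoids on transwell inserts. Basal samples collected at 20 min in the presence of C10. Peptide in apical and basal compartments quantified by LC/MS to give Papp.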

human GcgR = human GcgR (Homo sapiens, UniProt P47871); experiment: Functional cAMP activity in the presence of 1% HSA; assay type: cell-based; conditions: read-out: cAMP Rel EC50, hGcgR
hGcgR = hGcgR (Homo sapiens, UniProt P47871); experiment: Functional cAMP activation in the presence of 0.1% casein (no HSA); assay type: cell-based; conditions: read-out: Relative cAMP EC50, hGcgR;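 note: intracellular cAMP rise after 30 min at 37 °C, read by HTRF against a cAMP standard curve, scaled from buffer only (0%) to maximal control ligand response (100%)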
[9] = Body weight in diet-induced obese C57BL/6 mice; assay type: in vivo; conditions: 10 nmol/kg SC QD, percent of starting weight, DIO mice, mean ± SEM n=5
Method in brief: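 Male C57BL/6 DIO mice (41-50 g, 5 per group, randomized by weight) on calorie-rich diet received subcutaneous doses 30-90 min before dark onset, QD or Q3D for 9-16 days. Body weight measured daily, expressed as percent of starting weight, mean±SEM.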

[10] = in the presence of 0.1% casein (no HSA), geometric mean

human GcgR, sequence (P47871 26-477): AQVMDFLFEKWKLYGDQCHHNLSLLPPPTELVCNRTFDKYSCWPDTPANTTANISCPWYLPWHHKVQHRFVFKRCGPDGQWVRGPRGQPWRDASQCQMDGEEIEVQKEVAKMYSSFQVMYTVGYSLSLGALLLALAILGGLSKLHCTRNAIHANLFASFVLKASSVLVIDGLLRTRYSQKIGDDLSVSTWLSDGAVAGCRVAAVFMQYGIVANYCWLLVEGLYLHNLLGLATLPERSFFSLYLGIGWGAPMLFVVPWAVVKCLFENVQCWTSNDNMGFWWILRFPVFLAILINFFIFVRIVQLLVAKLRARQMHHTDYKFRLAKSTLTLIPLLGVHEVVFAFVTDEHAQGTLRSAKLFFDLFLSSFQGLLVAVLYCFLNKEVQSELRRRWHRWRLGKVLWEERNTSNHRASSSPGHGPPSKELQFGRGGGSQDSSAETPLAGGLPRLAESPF
hGcgR, sequence (P47871 26-477): as above
human GLP1-R, sequence (P43220 24-463): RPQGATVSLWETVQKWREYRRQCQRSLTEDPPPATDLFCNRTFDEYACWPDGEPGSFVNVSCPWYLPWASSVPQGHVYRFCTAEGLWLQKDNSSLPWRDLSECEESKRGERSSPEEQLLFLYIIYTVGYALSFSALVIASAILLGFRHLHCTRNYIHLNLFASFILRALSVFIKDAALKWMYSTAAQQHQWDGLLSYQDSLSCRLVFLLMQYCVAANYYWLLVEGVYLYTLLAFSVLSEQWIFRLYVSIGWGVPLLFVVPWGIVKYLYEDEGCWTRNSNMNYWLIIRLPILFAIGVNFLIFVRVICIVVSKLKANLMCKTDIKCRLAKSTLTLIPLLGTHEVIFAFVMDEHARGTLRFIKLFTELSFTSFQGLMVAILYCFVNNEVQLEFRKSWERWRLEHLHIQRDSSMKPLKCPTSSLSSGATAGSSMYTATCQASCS
T1 sequence (P43220 24-463): as above

Compound | remaining at 0.25 h, 0.4 mg/mL [1] [%] | AUC(0-inf) (in vivo [2]) [µM·h] | clearance (in vivo [2]) [mL/h/kg] | half-life (in vivo [2]) [days] | EC50 (human GLP1-R) [nM] | Internalization % TOP (human GLP1-R) [%] | EC50 (hGLP-1R [3]) [nM] | EC50 (hGLP-1R [4]) [nM] | EC50 (hGIPR [5]) [nM] | EC50 (hGIPR [6]) [pM] | bioavailability (in vivo [7]) [%] | AUC(0-inf) (in vivo [7]) [µM·h] | CL/F (in vivo [7]) [mL/min/kg] | Cmax (in vivo [7]) [nM] | Tmax (in vivo [7]) [h] | half-life (in vivo [7]) [min] | Relative Papp (Compared to internal standard) [8] | EC50 (human GcgR) [nM] | EC50 (hGcgR) [nM] | Body weight (%) ([9]; 14 days) | also measured
CC[C@H](C)[C@H](NC(=O)[C@H](CC(C)C)NC(=O)[C@](C)(Cc1ccc(O)cc1)NC(=O)[C@@H](CCC(=O)O)NC(=O)[C@@H](NC(=O)[C@H](Cc1ccccc1)NC(=O)[C@H](CCC(=O)O)NC(=O)[C@](C)(Cc1ccncc1)NC(=O)[C@H](CCC(N)=O)NC(=O)[C@H](C)NC(=O)[C@H](CCCCNC(=O)COCCOCCNC(=O)CC[C@H](NC(=O)CCCCCCCCCCCCCCCCC(=O)O)C(=O)O)NC(=O)[C@H](CCCN)NC(=O)[C@H](CC(=O)O)NC(=O)[C@H](CC(C)C)NC(=O)[C@](C)(CC(C)C)NC(=O)[C@@H](NC(=O)[C@](C)(CO)NC(=O)[C@H](Cc1ccncc1)NC(=O)[C@H](CC(=O)O)NC(=O)[C@H](CO)NC(=O)[C@@H](NC(=O)[C@](C)(Cc1ccccc1F)NC(=O)[C@@H](NC(=O)CNC(=O)[C@H](CCC(N)=O)NC(=O)C(C)(C)NC(=O)[C@@H](N)Cc1ccc(O)cc1)[C@@H](C)O)[C@@H](C)O)[C@@H](C)CC)[C@@H](C)CC)C(=O)N[C@@H](CCC(=O)O)C(=O)NCC(=O)NCC(=O)N1CCC[C@H]1C(=O)N[C@@H](CO)C(=O)N[C@@H](CO)C(=O)NCC(=O)N[C@@H](C)C(=O)N1CCC[C@H]1C(=O)N1CCC[C@H]1C(=O)N1CCC[C@H]1C(=O)N[C@@H](CO)C(=O)NCC(=O)N[C@@H](CO)C(N)=O [Example 699] | 97.9 | 9.23 ± 1.64 | 1.11 | 2.12 ± 0.571 | 14.9 | 102 | 25.3 | 0.196 | 0.566 | 6.63 | 1.3 | 7.15 | 1.51 | 187 | 2.75 | 2060 | 0.51 | 144 | 1.35 | 56.85 ± 2.42 | Body weight (%) ([9]; 7 days): 68.34 ± 0.85 %
H-Y[Aib]QGT[αMePhe(2-F)]TSD[4Pal]SI[αMeL]LD[Orn]K([γGlu-γGlu-C18 diacid])AQ[αMe4Pal][Orn]FI[dE][αMeY]LIEGGPSSGEPPPETE-NH2 [Example 686] |  | 7.04 ± 1.29 | 1.46 | 1.73 ± 0.0979 | 33.2 | 101 | 19.1 | 0.298 | 0.542 | 7.76 | 3.6 | 14.2 | 2.93 | 249 | 1 | 2680 | 0.60 | 169 | 2.43 | 72.73 ± 3.65 | 
H-Y[Aib]QGT[αMePhe(2-F)]TSD[4Pal][αMeS]I[αMeL]LD[Orn]K([AEEA-γGlu-C18 diacid])AQ[αMe4Pal]EFI[dE][αMeY]LIEGGPSSGAPPPSGGGE-NH2 [Example 741] | 111 | 9.55 ± 2.28 | 1.09 | 1.34 ± 0.176 | 50.1 |  | 32.4 | 0.239 | 0.817 | 6.12 | 0.8 | 4.2 | 2.28 | 95.8 | 3.75 | 3490 |  | 200 | 2.01 | 59.42 ± 2.94 | remaining at 0.5 h, 0.4 mg/mL [1]: 104%; remaining at 1 h, 0.4 mg/mL [1]: 105%
H-Y[Aib]QGT[αMePhe(2-F)]TSD[4Pal][αMeS]ILLD[Orn]K([γGlu-γGlu-C18 diacid])AQ[Aib][Orn]FI[dE]YLIEGGPSSGEPPPSGTGE-NH2 [Example 548] |  | 10.5 ± 1.58 | 0.971 | 2.22 ± 0.0251 | 17.8 | 109 | 38 | 0.478 | 3.48 | 54.7 | 0.6 | 3.58 | 2.7 | 75.7 | 1.5 | 2700 |  | 295 | 3.94 |  | 
H-Y[Aib]QGTFTSD[4Pal]SQ[αMeL]LDKK([γGlu-γGlu-C18 diacid])AQ[αMe4Pal]AFIEYLIAGGPSSGAPPPSGE-NH2 [Example 883] |  | 8.69 ± 0.623 | 1.15 | 2.62 ± 2.25 | 23.9 | 77.1 | 120 |  | 9.41 |  | 0.3 | 1.28 | 11.1 | 43.6 | 2 | 1740 |  | 578 |  |  | EC50 (hGLP-1R [4]; [10]): 1.05 nM; EC50 (hGIPR [6]; [10]): 77.9 pM; EC50 (hGcgR; [10]): 4.02 nM

— patent US20240270821A1, “GIP/GLP1/GCG TRI-RECEPTOR AGONISTS AND USES THEREOF” (priority 2023, published 2024)
